Literature values, collected in patent US20220347117A1 (priority 2021, published 2022).

C=CCN1CC[C@]23c4c5ccc(O)c4O[C@H]2C(=O)CC[C@@]3(O)[C@H]1C5 [naloxone]
pKa: about 7.94
